In patent publication US8404718B2, “Combinations of pyrazole kinase inhibitors” (Astex Therapeutics Limited, priority 2005, dated 2013):

Target: Activated CDK2/CyclinA (Homo sapiens, UniProt P24941)
Assay: Activated CDK2/CyclinA kinase inhibitory activity assay (IC50), Example 250A
Format: biochemical
Conditions: not given
Protocol: Compounds of the invention were tested for kinase inhibitory activity using the following protocol.
The reaction is allowed to proceed for 2 to 4 hours before being stopped with an excess of ortho-phosphoric acid (5 μl at 2%).
γ^33P-ATP which remains unincorporated into the histone H1 is separated from phosphorylated histone H1 on a Millipore MAPH filter plate. The wells of the MAPH plate are wetted with 0.5% orthophosphoric acid, and then the results of the reaction are filtered with a Millipore vacuum filtration unit through the wells. Following filtration, the residue is washed twice with 200 μl of 0.5% orthophosphoric acid. Once the filters have dried, 20 μl of Microscint 20 scintillant is added, and then counted on a Packard Topcount for 30 seconds.

Compound	IC50 [µM]
O=C(NC[C@H]1CC[C@H](NC(=O)c2n[nH]cc2NC(=O)c2c(F)cccc2F)CC1)OCc1ccccc1 [Example 130]	< 20
CN1CCC(C(=O)Nc2c[nH]nc2C(=O)NCC2CC2)CC1 [Example 181]	< 20
CC(C)(C)OC(=O)N1CCC(NC(=O)c2n[nH]cc2NC(=O)c2ccc(F)cc2)CC1 [Example 173]	< 20
CN1CCC(NC(=O)Nc2c[nH]nc2C(=O)N[C@H]2CC[C@H](O)CC2)CC1 [Example 171]	< 20
O=C(N[C@H]1CC[C@@H](NC2CCOCC2)CC1)c1n[nH]cc1NC(=O)c1c(F)cccc1F [Example 170]	< 20
CC(C)(C)NC(=O)Nc1c[nH]nc1C(=O)NCC1CC1 [Example 184]	< 20
O=C(N[C@H]1CC[C@@H](N2CCOCC2)CC1)c1n[nH]cc1NC(=O)c1c(F)cccc1F [Example 168]	< 20
CC(C)(C)OC(=O)N1CCC(NC(=O)c2n[nH]cc2NC(=O)c2ccccc2)CC1 [Example 172]	< 20
CC(C)(C)CNC(=O)Nc1c[nH]nc1C(=O)N[C@H]1CC[C@H](O)CC1 [Example 169]	< 20
CN1CCC(N2CCC(NC(=O)c3n[nH]cc3NC(=O)c3c(F)cccc3F)CC2)CC1 [Example 177]	< 20

Test system: human colon carcinoma cell line HCT 116
Assay: Anti-proliferative activity, Alamar Blue assay
Format: cell-based
Conditions: 72 hours compound incubation, read-out: IC50, inhibition of cell growth, HCT 116
Protocol: The anti-proliferative activities of the combinations of the invention, as well as the individual components of the combinations, are determined by measuring the ability of the compounds to inhibition of cell growth in a number of cell lines. Inhibition of cell growth is measured using the Alamar Blue assay (Nociari, M. M, Shalev, A., Benias, P., Russo, C. Journal of Immunological Methods 1998, 213, 157-167). The method is based on the ability of viable cells to reduce resazurin to its fluorescent product resorufin. For each proliferation assay cells are plated onto 96 well plates and allowed to recover for 16 hours prior to the addition of inhibitor compounds for a further 72 hours. At the end of the incubation period 10% (v/v) Alamar Blue is added and incubated for a further 6 hours prior to determination of fluorescent product at […]. In the case of the non-proliferating cell assay cells are maintained at confluence for 96 hour prior to the addition of inhibitor compounds for a further 72 hours. The number of viable cells is determined by Alamar Blue assay as before. All cell lines are obtained from ECACC (European Collection of cell Cultures).

Compound	IC50 [µM]
COc1cccc(F)c1C(=O)Nc1c[nH]nc1C(=O)Nc1cccnc1 [Example 222]	< 20
O=C(Nc1c[nH]nc1C(=O)Nc1ccc(F)cc1)c1cnc[nH]1 [Example 39, 4-[(3H-Imidazole-4-carbonyl)-amino]-1H-pyrazole-3-carboxylic acid (4-fluoro-phenyl)-amide]	< 100
O=C(Nc1cc(F)ccc1OCCN1CCCC1)c1n[nH]cc1NC(=O)c1c(F)cccc1F [Example 166, 4-(2,6-Difluoro-benzoylamino)-1H-pyrazole-3-carboxylic acid[5-fluoro-2-(2-pyrrolidin-1-yl-ethoxy)-phenyl]-amide]	< 20
O=C(Nc1c[nH]nc1C(=O)Nc1ccc(F)cc1)c1ccc2ccccc2n1 [Example 49, Quinoline-2-carboxylic acid[3-(4-fluoro-phenylcarbamoyl)-1H-pyrazol-4-yl]-amide]	< 100
O=C(NC1CCNCC1)c1n[nH]cc1NC(=O)c1cnn2ccccc12 [Example 193]	< 20
Cc1ccccc1C(=O)Nc1c[nH]nc1C(=O)Nc1ccc(F)cc1 [Example 46, 4-(2-Methyl-benzoylamino)-1H-pyrazole-3-carboxylic acid (4-fluoro-phenyl)-amide]	< 20
CCOC(=O)C1CCC(NC(=O)c2n[nH]cc2NC(=O)c2c(F)cccc2F)CC1 (centres unmarked) [Example 83A, 4-{[4-(2,6-difluoro-benzoylamino)-1H-pyrazole-3-carbonyl]-amino}-cyclohexanecarboxylic acid ethyl ester]	< 20
O=C(Nc1cccc(CN2CCOCC2)c1)c1n[nH]cc1NC(=O)c1c(F)cccc1F [Example 74]	< 20
COc1ccccc1C(=O)Nc1c[nH]nc1C(=O)Nc1ccc(F)cc1 [Example 25, 4-(2-Methoxy-benzoylamino)-1H-pyrazole-3-carboxylic acid (4-fluoro-phenyl)-amide]	< 20
CN1CCN(c2cc(F)cc(C(=O)Nc3c[nH]nc3C(=O)NC3CCC(C(C)(C)C)CC3)c2)CC1 (centres unmarked) [Example 214]	< 20
CN1CCN(NC(=O)c2n[nH]cc2NC(=O)c2c(Cl)cccc2Cl)CC1 [Example 207]	< 20
O=C(NCc1ccccc1Cl)c1n[nH]cc1NC(=O)c1c(F)cccc1F [Example 91]	< 20
O=C(NC1CCN(C2CCOCC2)CC1)c1n[nH]cc1NC(=O)c1c(F)cccc1F [Example 221]	< 20
O=C(NC1CCOCC1)c1n[nH]cc1NC(=O)c1c(F)cccc1F [Example 66]	< 20
O=C(N[C@@H]1CN2CCC1CC2)c1n[nH]cc1NC(=O)c1c(F)cccc1F [Example 216]	< 100
O=C(NCC1CCCNC1)c1n[nH]cc1NC(=O)c1c(F)cccc1F (centres unmarked) [Example 98]	< 20
O=C(NCC1CCOCC1)c1n[nH]cc1NC(=O)c1c(F)cccc1F [Example 67]	< 20
CN1CCC(NC(=O)c2n[nH]cc2NC(=O)c2c(F)cc(F)cc2F)CC1 [Example 205]	< 20
O=C(Nc1cccc(CO)c1)c1n[nH]cc1NC(=O)c1c(F)cccc1F [Example 73]	< 20
COC1CCC(NC(=O)c2n[nH]cc2NC(=O)c2c(Cl)cccc2Cl)CC1 (centres unmarked) [Example 210]	< 20
O=C(Nc1c[nH]nc1C(=O)Nc1ccc(F)cc1)c1ccco1 [Example 38, 4-[(Furan-2-carbonyl)-amino]-1H-pyrazole-3-carboxylic acid (4-fluoro-phenyl)-amide]	< 100
COc1cccc(C(=O)Nc2c[nH]nc2C(=O)Nc2ccc(F)cc2)c1F [Example 51, 4-(2-fluoro-3-methoxy-benzoylamino)-1H-pyrazole-3-carboxylic acid (4-fluoro-phenyl)-amide]	< 100
O=C(Nc1c[nH]nc1C(=O)Nc1ccc(F)cc1)c1ccsc1 [Example 50, 4-[(Thiophene-3-carbonyl)-amino]-1H-pyrazole-3-carboxylic acid (4-fluoro-phenyl)-amide]	< 20
O=C(Nc1c[nH]nc1C(=O)NC1CCNCC1)c1cccc2c1OCCO2 [Example 192]	< 20
O=C(NC1CCCC1)c1n[nH]cc1NC(=O)c1c(F)cccc1F [Example 75]	< 20

Compound	IC50 [µM]
O=C(NCC1CC1)c1n[nH]cc1NC(=O)c1c(F)cccc1F [Example 79]	< 20
O=C(NC1CCN(Cc2ccccc2)C1)c1n[nH]cc1NC(=O)c1c(F)cccc1F (centres unmarked) [Example 85]	< 100
O=C(Nc1ccncc1)c1n[nH]cc1NC(=O)c1c(Cl)cccc1Cl [Example 220]	< 20
COc1cccc(OC)c1C(=O)Nc1c[nH]nc1C(=O)Nc1ccc(F)cc1 [Example 60]	< 20
O=C(NCc1ccccn1)c1n[nH]cc1NC(=O)c1c(F)cccc1F [Example 89]	< 100
O=C(NCc1ccccc1F)c1n[nH]cc1NC(=O)c1c(F)cccc1F [Example 92]	< 20
COc1nc(Cl)cc(C)c1C(=O)Nc1c[nH]nc1C(=O)NC1CCNCC1 [Example 195]	< 20
O=C(NC1CCC(O)CC1)c1n[nH]cc1NC(=O)c1c(F)cccc1F (centres unmarked) [Example 95]	< 20
O=C(Nc1ccc(F)cc1)c1n[nH]cc1NC(=O)C(F)(F)F [Example 3, 4-(2,2,2-Trifluoro-acetylamino)-1H-pyrazole-3-carboxylic acid (4-fluoro-phenyl)-amide]	< 100
O=C(NC1CCNCC1)c1n[nH]cc1NC(=O)c1c(Cl)cccc1Cl [Example 150]	< 20
O=C(NCC1CCCCC1)c1n[nH]cc1NC(=O)c1c(F)cccc1F [Example 69]	< 20
O=C(NC1CCN(CC2CCOC2)CC1)c1n[nH]cc1NC(=O)c1c(Cl)cccc1Cl (centres unmarked) [Example 219]	< 20
O=C(Nc1cccnc1)c1n[nH]cc1NC(=O)c1c(F)cccc1F [Example 223]	< 20
O=C(Nc1c[nH]nc1C(=O)Nc1ccc(F)cc1)c1ccccc1OCCN1CCCC1 [Example 52, 4-[2-(2-Pyrrolidin-1-yl-ethoxy)-benzoylamino]-1H-pyrazole-3-carboxylic acid 4-fluorophenylamide]	< 20
O=C(CO)Nc1c[nH]nc1C(=O)Nc1ccc(F)cc1 [Example 29, 4-(2-Hydroxy-acetylamino)-1H-pyrazole-3-carboxylic acid (4-fluoro-phenyl)-amide]	< 100
O=C(NC1CCNC1)c1n[nH]cc1NC(=O)c1c(F)cccc1F (centres unmarked) [Example 185]	< 20
O=C(Nc1cccnc1)c1n[nH]cc1NC(=O)c1c(Cl)cccc1Cl [Example 218]	< 20
Cc1[nH]nc(C(=O)Nc2ccc(F)cc2)c1NC(=O)c1c(F)cccc1F [Example 80]	< 20
O=C(Nc1ccc(F)cc1)c1n[nH]cc1NC(=O)C1CCCCC1 [Example 27, 4-(Cyclohexanecarbonyl-amino)-1H-pyrazole-3-carboxylic acid (4-fluoro-phenyl)-amide]	< 20
O=C(NCc1ccccc1)c1n[nH]cc1NC(=O)c1c(F)cccc1F [Example 90]	< 20
Cn1nc(C(C)(C)C)cc1C(=O)Nc1c[nH]nc1C(=O)NCC1CC1 [Example 183]	< 100
O=C(Nc1c[nH]nc1C(=O)Nc1ccc(F)cc1)c1ccc(CO)cc1 [Example 44, 4-(4-Hydroxymethyl-benzoylamino)-1H-pyrazole-3-carboxylic acid (4-fluoro-phenyl)-amide]	< 20
CC(C)(C)OC(=O)N1CCCC(CNC(=O)c2n[nH]cc2NC(=O)c2c(F)cccc2F)C1 (centres unmarked) [Example 97]	< 20
O=C(CCc1ccc(Cl)cc1)Nc1c[nH]nc1C(=O)Nc1ccc(F)cc1 [Example 10, 4-[3-(4-Chloro-phenyl)-propionylamino]-1H-pyrazole-3-carboxylic acid (4-fluoro-phenyl)-amide]	< 20
